Reference: patent US20160296529A1, “AMINOTRIAZOLOPYRIDINE FOR USE IN THE TREATMENT OF INFLAMMATION, AND PHARMACEUTICAL COMPOSITIONS THEREOF” (priority 2012, published 2016)
Values joined by “and” are separate entries in the source; they are usually repeats but may differ in a detail not shown here. Equal values may be shown once. Read-outs that look alike come from different tables or passages of the source.

Key:
[1] = molecular target: T1, Recombinant human JAK2 catalytic domain (Homo sapiens, UniProt O60674); assay: JAK2 Ulight-JAK1 peptide assay; type: biochemical
T1 construct: amino acids 808-1132; catalog number PV4210; GST; purchased Invitrogen PV4210
Experimental: 0.0125 mU of JAK2 was incubated with 25 nM Ulight-JAK1(tyr1023) peptide (Perkin Elmer catalog number TRF0121) in kinase reaction buffer (25 mM HEPES pH7.0, 0.01% Triton X-100, 7.5 mM MgCl2, 2 mM DTT, 7.5 μM ATP) with or without 4 μL containing test compound or vehicle (DMSO, 1% final concentration), in a total volume of 20 μL, in a white 384 Opti plate (Perkin Elmer, catalog number 6007290). After 60 min at room temperature, reactions were stopped by adding 20 μL/well of detection mixture (1× detection buffer (Perkin Elmer, catalog number CR97-100C), 0.5 nM Europium-anti-phosphotyrosine (PT66) (Perkin Elmer, catalog number AD0068), 10 mM EDTA). Readout was performed using the Envision with excitation at 320 nm and measuring emission at 615 nm (Perkin Elmer). Kinase activity was calculated by subtracting relative fluorescence units (RFU) obtained in the presence of a positive control inhibitor (10 μM staurosporine) from RFU obtained in the presence of vehicle. The ability of a test compound to inhibit this activity was determined as:
Percentage inhibition−((RFU determined for sample with test compound present−RFU determined for sample with positive control inhibitor) divided by (RFU determined in the presence of vehicle−RFU determined for sample with positive control inhibitor))*100. […]

[2] = system: IFNα-induced STAT1 phosphorylation (JAK1/TYK2 pathway); assay: Human whole blood assay (hWBA), IFNα stimulation, phospho-STAT1 on CD4+ cells; type: cell-based; conditions: 6 different donors
Experimental: A flow cytometry analysis was performed to establish JAK1 over JAK2 compound selectivity ex vivo using human whole blood. Therefore, blood is taken from human volunteers who gave informed consent. Blood is then equilibrated for 30 min at 37° C. under gentle rocking, then aliquoted in Eppendorf tubes. Compound is added at different concentrations and incubated at 37° C. for 30 min under gentle rocking and subsequently stimulated for 20 min at 37° C. under gentle rocking with interleukin 6 (IL-6) for JAK1-dependent pathway stimulation, Interferon alpha (IFNα) for JAK1/TYK2 pathway stimulation, interleukin 2 (IL-2) for JAK1/JAK3 pathway stimulation or GM-CSF for JAK2-dependent pathway stimulation. Phospho-STAT1 (for IL-6- and IFNα-stimulated cells) and phospho-STAT5 (for IL-2- and GM-CSF-stimulated cells) levels are then evaluated using FACS analysis. […]
Cells were then washed once with 1×PBS and analyzed on a FACSCanto II flow cytometer (BD Biosciences).
50,000 total events were counted and Phospho-STAT1 positive cells were measured after gating on CD4+ cells, in the lymphocyte gate for IL-6- and IFNα-stimulated cells. Phospho-STAT5 positive cells were measured after gating on CD4+ cells, in the lymphocyte gate for IL-2-stimulated cells. Phospho-STAT5 positive cells were measured after gating on CD33+ cells. […]

T1 sequence (O60674 808-1132): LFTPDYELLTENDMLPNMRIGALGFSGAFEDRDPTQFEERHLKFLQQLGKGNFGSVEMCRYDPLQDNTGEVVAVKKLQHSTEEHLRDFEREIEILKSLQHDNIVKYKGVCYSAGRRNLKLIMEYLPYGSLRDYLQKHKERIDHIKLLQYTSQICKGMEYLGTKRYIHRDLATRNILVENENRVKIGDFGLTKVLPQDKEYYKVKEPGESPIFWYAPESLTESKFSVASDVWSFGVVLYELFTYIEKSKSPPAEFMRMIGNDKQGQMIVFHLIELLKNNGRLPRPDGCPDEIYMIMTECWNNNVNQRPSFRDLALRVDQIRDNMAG

IC50 ([1]; average, read-out: IC50 (average)): 397 nM
IC50 ([1]; individual determinations, read-out: IC50): 1030 nM and 517 nM and 351 nM and 138 nM and 367 nM and 310 nM and 729 nM and 152 nM and 203 nM and 168 nM
IC50 [2]: 15400 nM
SMILES: Nc1nc2cccc(-c3ccc(CN4CCS(=O)(=O)CC4)cc3)n2n1 [Formula I, 5-[4-(1,1-Dioxothiomorpholin-4-ylmethyl)-phenyl]-[1,2,4]triazolo[1,5-a]pyridin-2-ylamine]
